Assay results taken from patent US12044651B2, “Sensor device and methods” (SCENTIAN BIO LIMITED, priority 2016, dated 2024).
Read-outs that look alike come from different tables or passages of the source. Marks after values point to notes of the source that are not given here. One block for each compound: values may come before it.

Legend:
[1] = tested on: AgOR8/Orco; conditions: ref 33; cited from earlier work
[2] = tested on: OBP proteins; conditions: ref 41; cited from earlier work
[3] = molecular target: DOr85b/Orco (Drosophila melanogaster, UniProt Q9VHQ7); conditions: cited from earlier work
[4] = molecular target: T1, OR71a (Drosophila melanogaster, UniProt Q9VUK5); assay: CNT-FET sensor covalently functionalized with Or71a nanodiscs (Example 3); assay type: binding
T1 sequence (Q9VUK5 1-378): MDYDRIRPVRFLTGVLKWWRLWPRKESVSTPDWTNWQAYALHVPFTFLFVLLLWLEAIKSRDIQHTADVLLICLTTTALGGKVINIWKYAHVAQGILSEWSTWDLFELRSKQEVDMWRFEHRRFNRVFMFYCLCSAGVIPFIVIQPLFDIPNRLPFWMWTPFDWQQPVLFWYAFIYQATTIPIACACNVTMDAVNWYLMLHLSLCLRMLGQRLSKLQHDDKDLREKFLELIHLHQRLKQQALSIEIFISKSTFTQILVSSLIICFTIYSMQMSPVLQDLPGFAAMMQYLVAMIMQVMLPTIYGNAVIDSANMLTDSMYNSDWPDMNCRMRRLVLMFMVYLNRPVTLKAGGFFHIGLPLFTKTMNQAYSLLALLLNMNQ
Procedure: The dispersion was sonicated until a clear solution was obtained. The temperature was kept at 25° C. throughout the sonication process. The thiolpyridine solution was prepared by dissolving 10 mg of 2-Mercaptopyridine (99%, Sigma Aldrich) in 1 ml of methanol. The solution was spun coated on a polydimethylsiloxane (PDMS) surface at 2000 rpm for one minute. Before the spin coating process, the PDMS surface was cleaned by a 50 W Oxygen plasma for 1 minute to improve the wettability. The cleaned substrates were placed upside down on the PDMS surface for three minutes and washed in ethanol to remove the excess thiolpyridine molecules. Then the substrates were transferred into the CNT suspension and immersed into the suspension for 10 minutes. The samples were removed from the suspension and dipped into Ethanol for another 10 minutes to remove the thiolpyridine molecules in the SWNT network. The alignment markers were deposited by defining the markers by photolithography and thermal evaporation of 5 nm Chromium and 50 nm of Gold. The metal Lift off was done by acetone immersion for 15 minutes followed by an Isopropyl alcohol (IPA) wash and N2 blow dry. The result is a uniform thin film CNT network covering the entire substrate surface. The purification procedure is a variation on the one detailed in […] et al. 2013^14. […] Purity was assessed on Coomassie stained SDS-PAGE gels and Western blotting. […]

[5] = molecular target: T1, OR71a; assay: EIS sensor, Or71a liposomes on gold electrode, optimized conditions (Example 5); assay type: binding; conditions: EIS
[6] = molecular target: T2, AgOR1/Orco (Anopheles gambiae, UniProt Q8WTE7); conditions: ref 33; cited from earlier work
T2 construct: host or cells: Xenopus oocytes

[7] = tested on: ApolOR1/Orco; conditions: +ApolPBP2; estimated visually from graph; cited from earlier work
[8] = tested on: BmOR3/Orco; conditions: ref 13; cited from earlier work
[9] = tested on: BmOR3/Orco; conditions: cited from earlier work
[10] = tested on: BmOR1/Ocro; conditions: ref 13; cited from earlier work
[11] = tested on: BmOR1/Orco; conditions: cited from earlier work
[12] = tested on: BmOr1/Orco; conditions: cited from earlier work
[13] = tested on: EpOR3/Orco; conditions: estimated visually from graph; cited from earlier work
[14] = tested on: ECB (Z) OR3/Orco; conditions: ref 2; cited from earlier work
[15] = tested on: OscaOR1/Orco; conditions: cited from earlier work
[16] = tested on: OnOr1/Orco; conditions: ref 32; cited from earlier work
[17] = tested on: DiOR1/Orco; conditions: cited from earlier work
[18] = tested on: SexiOR13/Orco; conditions: ref 26; cited from earlier work
[19] = tested on: SexiOR16/Orco; conditions: ref 26; cited from earlier work
[20] = tested on: HVOR6/Orco; conditions: ref 31; cited from earlier work
[21] = tested on: MsiOR1/Orco; conditions: cited from earlier work
[22] = tested on: PxOR1/Orco; conditions: cited from earlier work
[23] = tested on: HVOR13/Orco; conditions: ref 31; cited from earlier work
[24] = tested on: BmOr45/Orco; conditions: cited from earlier work
[25] = tested on: BmOr47/Orco; conditions: cited from earlier work
[26] = molecular target: DmOr22a/Orco (Drosophila melanogaster, UniProt P81909); conditions: cited from earlier work
[27] = tested on: AgOr65/Orco; conditions: given as Log, cited from earlier work
[28] = tested on: AgOr65/Orco; conditions: ref 33; cited from earlier work
[29] = tested on: AgOr48/Orco; conditions: given as Log, cited from earlier work
[30] = tested on: BdorOBP2; conditions: ref 39; cited from earlier work
[31] = tested on: EpOR1/Orco; conditions: cited from earlier work
[32] = tested on: EpOR3/Orco; conditions: ref 19; cited from earlier work
[33] = molecular target: T3, AgOR2/Orco (Anopheles gambiae, UniProt Q8WTE6); conditions: ref 33; cited from earlier work
T3 construct: host or cells: Xenopus oocytes

[34] = tested on: AgOr10/Orco; conditions: ref 33; cited from earlier work
[35] = tested on: BmOr19/Orco; conditions: cited from earlier work

Sequence of DOr85b/Orco (Q9VHQ7 whole entry): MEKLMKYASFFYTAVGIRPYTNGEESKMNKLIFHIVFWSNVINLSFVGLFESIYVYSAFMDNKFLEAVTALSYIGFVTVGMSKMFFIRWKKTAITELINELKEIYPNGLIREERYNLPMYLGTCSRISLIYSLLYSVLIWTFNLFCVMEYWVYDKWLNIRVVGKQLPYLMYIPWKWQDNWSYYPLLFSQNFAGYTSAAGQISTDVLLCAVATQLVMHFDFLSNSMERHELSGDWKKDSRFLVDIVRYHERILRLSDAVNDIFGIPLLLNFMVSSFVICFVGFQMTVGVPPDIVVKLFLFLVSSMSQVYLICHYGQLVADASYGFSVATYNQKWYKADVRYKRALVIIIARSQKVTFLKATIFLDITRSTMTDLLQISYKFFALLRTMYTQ
Sequence of DOr85b/Orco (Q9VNB5 whole entry partner): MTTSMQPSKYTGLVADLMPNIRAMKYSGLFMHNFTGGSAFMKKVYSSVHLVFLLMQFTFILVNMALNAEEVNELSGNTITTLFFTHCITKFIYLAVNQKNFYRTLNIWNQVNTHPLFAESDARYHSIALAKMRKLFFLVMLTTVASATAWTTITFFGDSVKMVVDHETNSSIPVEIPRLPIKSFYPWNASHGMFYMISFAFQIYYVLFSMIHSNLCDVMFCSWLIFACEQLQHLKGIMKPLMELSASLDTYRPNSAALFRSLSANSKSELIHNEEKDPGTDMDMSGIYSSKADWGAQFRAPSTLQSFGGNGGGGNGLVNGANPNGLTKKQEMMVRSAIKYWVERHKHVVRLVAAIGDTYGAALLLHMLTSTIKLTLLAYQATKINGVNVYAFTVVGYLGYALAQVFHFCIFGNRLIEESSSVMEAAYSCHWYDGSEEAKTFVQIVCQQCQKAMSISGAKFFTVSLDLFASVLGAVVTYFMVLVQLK
Sequence of DmOr22a/Orco (P81909 whole entry): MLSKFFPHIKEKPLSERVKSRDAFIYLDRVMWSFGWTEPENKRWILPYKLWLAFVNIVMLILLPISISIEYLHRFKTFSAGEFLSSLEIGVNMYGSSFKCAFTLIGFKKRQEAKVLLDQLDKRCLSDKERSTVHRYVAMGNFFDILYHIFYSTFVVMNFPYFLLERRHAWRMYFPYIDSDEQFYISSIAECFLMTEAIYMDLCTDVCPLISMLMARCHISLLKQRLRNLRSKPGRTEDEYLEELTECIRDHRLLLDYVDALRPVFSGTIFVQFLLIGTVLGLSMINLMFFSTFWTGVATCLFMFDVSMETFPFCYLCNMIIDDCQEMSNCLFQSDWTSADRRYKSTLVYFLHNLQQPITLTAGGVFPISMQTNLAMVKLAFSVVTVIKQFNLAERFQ
T2 sequence (Q8WTE7 whole entry): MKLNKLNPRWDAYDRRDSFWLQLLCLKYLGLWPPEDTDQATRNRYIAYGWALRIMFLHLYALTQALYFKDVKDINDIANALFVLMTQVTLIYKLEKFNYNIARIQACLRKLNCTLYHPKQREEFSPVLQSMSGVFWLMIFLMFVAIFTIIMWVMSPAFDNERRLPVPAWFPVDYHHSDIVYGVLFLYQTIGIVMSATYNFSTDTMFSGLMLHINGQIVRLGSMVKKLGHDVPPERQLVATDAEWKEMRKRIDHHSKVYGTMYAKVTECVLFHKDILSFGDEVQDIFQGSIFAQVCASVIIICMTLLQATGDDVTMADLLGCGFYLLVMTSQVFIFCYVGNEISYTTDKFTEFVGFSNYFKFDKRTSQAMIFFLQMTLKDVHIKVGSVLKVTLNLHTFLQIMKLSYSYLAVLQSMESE
T2 sequence (Q7QCC7 whole entry partner): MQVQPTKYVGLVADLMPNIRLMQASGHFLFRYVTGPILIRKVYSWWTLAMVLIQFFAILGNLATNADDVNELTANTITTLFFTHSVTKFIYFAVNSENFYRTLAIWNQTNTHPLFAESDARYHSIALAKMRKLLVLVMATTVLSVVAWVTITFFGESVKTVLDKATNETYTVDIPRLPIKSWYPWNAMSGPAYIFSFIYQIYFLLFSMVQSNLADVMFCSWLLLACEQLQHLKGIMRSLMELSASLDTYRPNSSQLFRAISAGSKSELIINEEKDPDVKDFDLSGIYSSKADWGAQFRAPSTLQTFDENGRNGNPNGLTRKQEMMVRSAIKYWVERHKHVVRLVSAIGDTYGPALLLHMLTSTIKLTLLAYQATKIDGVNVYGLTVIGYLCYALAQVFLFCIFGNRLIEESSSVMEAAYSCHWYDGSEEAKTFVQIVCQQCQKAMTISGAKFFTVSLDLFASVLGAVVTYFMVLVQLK
T3 sequence (Q8WTE6 whole entry): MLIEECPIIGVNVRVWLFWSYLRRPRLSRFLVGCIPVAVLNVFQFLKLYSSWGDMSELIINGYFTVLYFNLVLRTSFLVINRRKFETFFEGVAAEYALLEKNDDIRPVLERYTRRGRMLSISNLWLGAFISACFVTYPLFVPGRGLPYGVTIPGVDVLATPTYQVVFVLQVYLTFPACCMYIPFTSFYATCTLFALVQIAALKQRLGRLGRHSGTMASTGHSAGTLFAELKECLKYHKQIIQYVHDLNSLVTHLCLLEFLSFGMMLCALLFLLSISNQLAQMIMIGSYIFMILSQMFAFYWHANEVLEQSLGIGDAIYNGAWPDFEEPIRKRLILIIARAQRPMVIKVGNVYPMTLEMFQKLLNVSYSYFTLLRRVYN
T3 sequence (Q7QCC7 whole entry partner): as the sequence (Q7QCC7 whole entry partner) above

Compound: C=CC(O)CCCCC (stereo not shown) [1-octen-3-ol]
- EC50 [1]: 186 nM

Compound: CCCCCC(C)=O [2-heptanone]
- concentration that could be detected [2]: 0.018 M
- Sensitivity limit ([3]; estimated visually from graph): 10^−8 − 10^−6 M*
- EC50 ([3]; ref 12): 45600 nM

- limit of detection ([4]; nanodiscs 1:100 dilution): below 1 fM
- concentration at which clear electronic response starts ([4]; real time current measurement mode): 1 fM
- LOD [5]: 0.1 fM
Compound: CCc1ccc(OC)c(O)c1 [4-ethyl guaiacol]

Compound: Cc1ccc(O)cc1 [4-methylphenol]
- EC50 [6]: 412 nM

Compound: CCCC/C=C\CCC/C=C/CCCCC=O [(E,Z) -6,11-hexadecadienal]
- Sensitivity limit [7]: 10^−15 M*

Compound: CCC/C=C\C=C\CCCCCCCCC=O [Bombykal]
- EC50 [8]: 2030 nM
- Sensitivity limit [8]: 300 nM
- Sensitivity limit ([9]; estimated visually from graph): 10^−8 − 10^−6 M*
- EC50 ([9]; ref 12): 380 nM

Compound: CCC/C=C\C=C\CCCCCCCCCO [Bombykol]
- EC50 [10]: 4390 nM
- Sensitivity limit [10]: 1000 nM
- Sensitivity limit ([11]; estimated visually from graph): 10^−8 − 10^−6 M*
- EC50 ([11]; ref 12): 250 nM
- EC50 ([12]; ref 29): 34000 nM
- EC50 ([12]; ref 30): 5900 nM

Compound: CC(C)=CCCC(C)=CC=O [Citral]
- Sensitivity limit [13]: 10^−15 M*

Compound: CC/C=C/CCCCCCCCCCOC(C)=O [E11 pheromone]
- EC50 [14]: 12.5 nM
- Sensitivity limit [14]: 10^−9 M^

Compound: CC/C=C/CCCCCCCCCCO [E11-14:OH]
- Sensitivity limit ([15]; estimated visually from graph): 10^−7 M*
- EC50 ([15]; ref 27): 1000 nM

Compound: C/C=C/CCCCCCCCCCCOC(C)=O [E12-14:OAc]
- EC50 [16]: 260 nM

Compound: CCCC/C=C/CCCCCCCCCC=O [EII-16:Ald]
- Sensitivity limit ([17]; estimated visually from graph): 10^−7 M*
- EC50 ([17]; ref 28): 1000 nM

Compound: C/C=C/C/C=C\CCCCCCCCOC(C)=O [Z9, E12-14:OAc]
- EC50 [18]: 3160 nM

Compound: CCCC/C=C\CCCCCCCCO [Z9-14:OH]
- EC50 [19]: 969 nM

Compound: CCCC/C=C\CCCCCCCC=O [Z9-14:ald]
- EC50 [20]: 979 nM

Compound: CCCC/C=C\CCCCCCCCCCOC(C)=O [Z11-16:Ac]
- Sensitivity limit ([21]; estimated visually from graph): 10^−7 M*
- EC50 ([21]; ref 28): 1000 nM

Compound: CCCC/C=C\CCCCCCCCCC=O [Z11-16:Ald]
- Sensitivity limit ([22]; estimated visually from graph): 10^−8 − 10^−6 M*
- EC50 ([22]; ref 12): 2520 nM
- EC50 [23]: 979 nM

Compound: O=C(O)c1ccccc1 [benzoic acid]
- Sensitivity limit ([24]; estimated visually from graph): 10^−11 M*
- EC50 ([24]; ref 18): 0.144 nM
- Sensitivity limit ([25]; estimated visually from graph): 10^−14 M*
- EC50 ([25]; ref 18): 0.0142 nM

Compound: CCCC(=O)OCC [ethyl butyrate]
- Sensitivity limit ([26]; estimated visually from graph): 10^−12 M*
- EC50 ([26]; ref 3): 0.0158 nM

Compound: C=CCc1ccc(O)c(OC)c1 [eugenol]
- Ec50 (Log) [27]: Log = −6.54
- Sensitivity limit (Log) ([27]; ref 23, estimated visually from graph): Log = −7*
- EC50 [28]: 34.4 nM

Compound: CCCCCCCCC1CCC(=O)O1 (stereo not shown) [g-dodecalactone]
- Ec50 (Log) [29]: Log = −7.01
- Sensitivity limit (Log) ([29]; ref 25, estimated visually from graph): Log = −8*

Compound: CC(C)=CCC/C(C)=C/CO [geraniol]
- detection limit [30]: ~10^−6 M
- Sensitivity limit ([31]; estimated visually from graph): 10^−14 M*
- EC50 ([31]; ref 17): 0.0018 nM

Compound: CC(=O)OC/C=C(\C)CCC=C(C)C [geranyl acetate]
- EC50 [32]: 1000 nM

Compound: c1ccc2[nH]ccc2c1 [indole]
- EC50 [33]: 16.7 nM
- EC50 [34]: 137 nM

Compound: C=CC(C)(O)CCC=C(C)C (stereo not shown) [linalool]
- detection limit [30]: ~10^−6 M
- Sensitivity limit ([35]; estimated visually from graph): 10^−10 M*
- EC50 ([35]; ref 18): 4.69 nM
